From ChEMBL document CHEMBL4811256, “Synthesis and evaluation of multi-target-directed ligands with BACE-1 inhibitory and Nrf2 agonist activities as potential agents against Alzheimer's disease” (Eur J Med Chem, 2021)
Active and inactive are the calls of the source. The calls are words filed in the database; no cut-off is given here.

Legend:
[1] = Glutathione peroxidase-like activity in pH 7.5 potassium phosphate buffer assessed as catalytic reduction of H2O2 by measuring initial velocity at 25 degreeC using GSH in presence of NADPH by UV absorbance analysis (reference value: 30.41+/- 2.06 microM/min); type: functional
PC-12 [2] = assay: Neuroprotective activity against H2O2-induced cell damage in rat PC-12 cells assessed as decrease in cell death at 10 uM pretreated for 12 hrs followed by H2O2 challenge by MTT assay; type: functional, cell-based
HEK293 = assay: Inhibition of amyloid beta(1 to 40) secretion in human HEK293T cells transfected with human APP harboring Swedish double mutant K595N/M596L at 1 uM measured after 24 hrs by ELISA; type: functional, cell-based
PC-12 [3] = assay: Cytoprotective activity against H2O2- induced cell death in rat PC-12 cells assessed as increase in viable cells pretreated for 12 hrs followed by H2O2 challenge by MTT assay; type: functional, cell-based; details: dose 2.5-10 µM
PC-12 [4] = assay: Protection against 6-OHDA-induced ROS accumulation in rat PC-12 cells assessed as intracellular ROS level by measuring mean fluorescence intensity pretreated for 12 hrs followed by 6-OHDA challenge by DCFH-DA staining based flow cytometry; type: functional, cell-based; details: dose 2.5-10 µM
PC-12 [5] = assay: Protection against H2O2-induced ROS accumulation in rat PC-12 cells assessed as intracellular ROS level by measuring mean fluorescence intensity pretreated for 12 hrs followed by H2O2 challenge by DCFH-DA staining based flow cytometry; type: functional, cell-based; details: dose 2.5-10 µM
in vitro = details: PAMPA
Beta-secretase 1 = Beta-secretase 1 (Homo sapiens, UniProt P56817); assay: Inhibition of BACE-1 (unknown origin) using Mca-Ser-Glu-Val-Asn-Leu-Asp-Ala-Glu-Phe-Lys-Dnp-OH as substrate preincubated for 30 mins followed by substrate addition and measured after 1 hr by FRET assay
PC-12 [6] = assay: Cytotoxicity against rat PC-12 cells at 25 uM incubated for 24 hrs by MTT assay; type: cell-based; details: pc-12, 24 h

Chain of Beta-secretase 1 (P56817 whole entry): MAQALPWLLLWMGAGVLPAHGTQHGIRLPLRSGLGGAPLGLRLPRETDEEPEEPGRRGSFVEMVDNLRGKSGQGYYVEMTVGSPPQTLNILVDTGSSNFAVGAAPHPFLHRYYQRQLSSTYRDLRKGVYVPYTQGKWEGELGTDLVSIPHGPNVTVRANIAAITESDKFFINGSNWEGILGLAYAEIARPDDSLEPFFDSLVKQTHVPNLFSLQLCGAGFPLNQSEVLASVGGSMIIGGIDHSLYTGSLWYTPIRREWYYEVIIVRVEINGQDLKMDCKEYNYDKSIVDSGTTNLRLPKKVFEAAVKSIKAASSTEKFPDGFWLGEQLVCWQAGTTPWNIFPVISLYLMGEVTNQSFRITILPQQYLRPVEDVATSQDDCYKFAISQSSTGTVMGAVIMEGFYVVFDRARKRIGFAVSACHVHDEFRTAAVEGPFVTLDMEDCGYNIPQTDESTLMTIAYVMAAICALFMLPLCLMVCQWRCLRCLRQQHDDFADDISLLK

| SMILES | V0 [1] [µM/min] | Activity (PC-12 [2]) | IC50 (Beta-secretase 1) [nM] | other results |
| --- | --- | --- | --- | --- |
| O=c1c2ccccc2[se]n1-c1ccccc1 | 153 | Active | – | inhibition (HEK293): inactive; Activity (PC-12 [3]): Dose-Dependent Effect; Activity (PC-12 [4]): Dose-Dependent Effect; Activity (PC-12 [5]): Dose-Dependent Effect |
| CCn1cc(C(=O)O)c(=O)c2cc(F)c(N3CCNC(C)C3)c(F)c21 (configuration not stated) [LOMEFLOXACIN] | – | – | – | Papp at 16 h (in vitro): 2.59 ×10⁻⁶ cm/s |
| CN1C(N)=N[C@](C)(c2cc(-n3[se]c4ccc(F)cc4c3=O)ccc2F)CS1(=O)=O | 197 | Active | 1950 | Activity (PC-12 [6]): Non-Toxic |
| COc1ccc2[se]n(-c3ccc(F)c([C@]4(C)CS(=O)(=O)N(C)C(N)=N4)c3)c(=O)c2c1 | 161 | Active | 1490 | Activity (PC-12 [6]): Non-Toxic |
| CN1C(N)=N[C@](C)(c2cc(-n3[se]c4cc(C(F)(F)F)ccc4c3=O)ccc2F)CS1(=O)=O | 145 | – | – | – |
| CN1C(N)=N[C@](C)(c2cc(-n3[se]c4c(F)cccc4c3=O)ccc2F)CS1(=O)=O | 242 | – | – | – |
| Cc1cccc2c(=O)n(-c3ccc(F)c([C@]4(C)CS(=O)(=O)N(C)C(N)=N4)c3)[se]c12 | 217 | – | – | – |
| Clc1cccc(Cl)c1N=C1NCCN1 [CLONIDINE] | – | – | – | Papp at 16 h (in vitro): 7.36 ×10⁻⁶ cm/s |
| CN1C(N)=N[C@](C)(c2cc(-n3[se]c4ccc(C(F)(F)F)cc4c3=O)ccc2F)CS1(=O)=O | 185 | Active | 1600 | Activity (PC-12 [6]): Non-Toxic |
| Cc1ccc2c(=O)n(-c3ccc(F)c([C@]4(C)CS(=O)(=O)N(C)C(N)=N4)c3)[se]c2c1 | 130 | – | – | – |
| CN1C(N)=N[C@](C)(c2cc(-n3[se]c4c(C(F)(F)F)cccc4c3=O)ccc2F)CS1(=O)=O | 180 | – | – | – |
| CN1C(C(=O)Nc2ccccn2)=C(O)c2ccccc2S1(=O)=O [PIROXICAM] | – | – | – | Papp at 16 h (in vitro): 3.07 ×10⁻⁶ cm/s |
| CN1C(N)=N[C@](C)(c2cc(-n3[se]c4ccccc4c3=O)ccc2F)CS1(=O)=O | 156 | Active | 1920 | Activity (PC-12 [6]): Non-Toxic |
| C[C@]12CC[C@@H]3c4ccc(O)cc4CC[C@H]3[C@@H]1CC[C@@H]2O [ESTRADIOL] | – | – | – | Papp at 16 h (in vitro): 12.2 ×10⁻⁶ cm/s |
| CN1C(N)=N[C@](C)(c2cc(NC(=O)c3ccc(F)cn3)ccc2F)CS1(=O)=O | 29.4 | Active | – | Activity (PC-12 [4]): inactive; Activity (PC-12 [5]): inactive |
| COc1ccc2c(=O)n(-c3ccc(F)c([C@]4(C)CS(=O)(=O)N(C)C(N)=N4)c3)[se]c2c1 | 114 | – | 1550 | – |
| Cc1ccc2[se]n(-c3ccc(F)c([C@]4(C)CS(=O)(=O)N(C)C(N)=N4)c3)c(=O)c2c1 | 146 | – | – | – |
| CN1C(N)=N[C@](C)(c2cc(-n3[se]c4cc(F)c(F)cc4c3=O)ccc2F)CS1(=O)=O | 163 | Active | 1120 | Activity (PC-12 [6]): Non-Toxic |
